According to patent US20250382344A1, “Soluble GLP1/GIP/NPY2 Receptor Triple Agonists” (Boehringer Ingelheim International GmH, priority 2024, published 2025):
Where two headings read alike, the source gives them in different places. *1 amine or outer side, *2 acyl side, *3 side chain or, on linkers, in order; H or OH if unused. Where a SMILES comes first, the peptide text is derived from it. Side-chain parts run from the residue outwards. [ ]: non-standard residue; d: D form. The star is where a group is joined. C18 diacid = O=C(O)CCCCCCCCCCCCCCCCC(=O)*; γGlu = O=C(O)[C@H](CCC(=O)[*:2])N[*:1]; εLys = N[C@@H](CCCCN[*:1])C(=O)[*:2]; Aib = CC(C)(N)C(=O)O

Tests used:
hGLP1R = biological target: T1, hGLP1R (Homo sapiens, UniProt P43220); assay: hGLP1R CreLuc assay in 0.5% and 100% plasma (HEK-293 CRE-luciferase reporter cells); format: cell-based; details: HEK-293 reporter cells
T1 construct: expressed in transfected cells; host or cells: HEK-293 CRE-luciferase reporter cells

hGIPR = biological target: T2, hGIPR (Homo sapiens, UniProt P48546); assay: hGIPR CreLuc assay in 0.5% and 100% plasma (CHO CRE-luciferase reporter cells); format: cell-based
T2 construct: expressed in transfected cells; host or cells: CHO CRE-luciferase reporter cells
T2 sequence (P48546 22-466): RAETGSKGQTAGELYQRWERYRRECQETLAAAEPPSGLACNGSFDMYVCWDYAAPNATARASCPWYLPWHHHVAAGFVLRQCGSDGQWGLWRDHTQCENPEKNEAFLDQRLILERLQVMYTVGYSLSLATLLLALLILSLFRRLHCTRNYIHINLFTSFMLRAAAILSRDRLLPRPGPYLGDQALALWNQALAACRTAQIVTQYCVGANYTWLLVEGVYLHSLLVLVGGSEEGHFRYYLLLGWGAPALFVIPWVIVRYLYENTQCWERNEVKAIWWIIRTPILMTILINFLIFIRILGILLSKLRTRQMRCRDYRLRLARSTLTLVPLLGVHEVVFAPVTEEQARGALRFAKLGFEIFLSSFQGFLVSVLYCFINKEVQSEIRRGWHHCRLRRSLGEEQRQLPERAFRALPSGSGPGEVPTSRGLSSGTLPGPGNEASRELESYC

[1] = Solubility in 0.1 M phosphate buffer at pH 7; format: physicochemical; details: 0.1 M phosphate buffer at pH 7, 10 mg/mL final peptide concentration, shaking 2 hours at room temperature, peptides as TFA-salts; measured sample pH 6.5-7.0
[2] = 0.5% human plasma, read-out: hGLP1R 0.5% hP
[3] = 0.5% human plasma, read-out: hGIPR 0.5% hP
[4] = 100% human plasma, read-out: hGLP1R 100% hP

T1 sequence (P43220 24-463): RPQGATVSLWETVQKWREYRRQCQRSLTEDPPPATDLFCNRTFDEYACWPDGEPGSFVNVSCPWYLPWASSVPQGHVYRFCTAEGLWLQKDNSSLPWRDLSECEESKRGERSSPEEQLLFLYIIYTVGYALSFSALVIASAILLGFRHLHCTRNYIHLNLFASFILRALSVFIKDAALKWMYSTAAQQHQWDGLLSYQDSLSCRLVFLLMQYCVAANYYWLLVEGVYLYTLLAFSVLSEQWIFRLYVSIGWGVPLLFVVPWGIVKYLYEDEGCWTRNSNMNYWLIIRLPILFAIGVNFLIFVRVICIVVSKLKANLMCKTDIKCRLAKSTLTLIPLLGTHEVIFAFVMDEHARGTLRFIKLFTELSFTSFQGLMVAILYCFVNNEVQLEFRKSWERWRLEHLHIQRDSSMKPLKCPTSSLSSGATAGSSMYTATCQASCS

EC50 (hGLP1R; [2])	EC50 (hGIPR; [3])	EC50 (hGIPR; 100% human plasma, read-out: hGIPR 100% hP)	solubility at 2 h [1]	EC50 (hGLP1R; [4])	SMILES
–	0.4 nM	–	4500 µg/mL	4 nM	CC[C@H](C)[C@H](NC(=O)[C@H](CC(C)C)NC(=O)[C@H](Cc1c[nH]cn1)NC(=O)[C@H](CCCNC(=N)N)NC(=O)[C@@H](NC(=O)[C@H](Cc1ccccc1)NC(=O)[C@H](C)NC(=O)C(C)(C)NC(=O)[C@H](CCC(N)=O)NC(=O)[C@H](C)NC(=O)[C@H](CCC(N)=O)NC(=O)[C@H](CCCCN)NC(=O)[C@H](CCC(=O)O)NC(=O)[C@H](CC(C)C)NC(=O)C(C)(C)NC(=O)[C@@H](NC(=O)[C@H](CO)NC(=O)[C@H](Cc1ccc(O)cc1)NC(=O)[C@H](CC(=O)O)NC(=O)[C@H](CO)NC(=O)[C@@H](NC(=O)[C@H](Cc1ccccc1)NC(=O)[C@@H](NC(=O)CNC(=O)[C@H](CCC(=O)O)NC(=O)C(C)(C)NC(=O)[C@@H](N)Cc1ccc(O)cc1)[C@@H](C)O)[C@@H](C)O)[C@@H](C)CC)C(C)C)C(=O)N[C@@H](CC(N)=O)C(=O)N[C@@H](CCCCNC(=O)[C@@H](N)CCCCNC(=O)CC[C@H](NC(=O)CC[C@H](NC(=O)CC[C@H](NC(=O)CC[C@H](NC(=O)CC[C@H](NC(=O)CC[C@H](NC(=O)CCCCCCCCCCCCCCCCC(=O)O)C(=O)O)C(=O)O)C(=O)O)C(=O)O)C(=O)O)C(=O)O)C(=O)N[C@@H](CC(C)C)C(=O)N[C@H](C(=O)N[C@@H](CCCNC(=N)N)C(=O)N[C@@H](CCC(N)=O)C(=O)N[C@@H](CCCNC(=N)N)C(=O)N[C@@H](Cc1ccc(O)cc1)C(N)=O)[C@@H](C)O [Compound 127, Y-Aib-E-G-T-F-T-S-D-Y-S-I-Aib-L-E-K-Q-A-Q-Aib-A-F-V-R-H-L-I-N-K(1,3)-L-T-R-Q-R-Y-NH2.C18DA-gGlu-gGlu-gGlu-gGlu-gGlu-gGlu-eLys(1,2)]
0.7 nM	0.4 nM	–	4800 µg/mL	2 nM	CC[C@H](C)[C@H](NC(=O)[C@H](CC(C)C)NC(=O)[C@H](Cc1c[nH]cn1)NC(=O)[C@H](CCCNC(=N)N)NC(=O)[C@@H](NC(=O)[C@H](Cc1ccccc1)NC(=O)[C@H](C)NC(=O)C(C)(C)NC(=O)[C@H](CCC(N)=O)NC(=O)[C@H](C)NC(=O)[C@H](CCC(=O)O)NC(=O)[C@H](CCC(=O)O)NC(=O)[C@H](CCC(=O)O)NC(=O)[C@H](CC(C)C)NC(=O)C(C)(C)NC(=O)[C@@H](NC(=O)[C@H](CO)NC(=O)[C@H](Cc1ccc(O)cc1)NC(=O)[C@H](CC(=O)O)NC(=O)[C@H](CO)NC(=O)[C@@H](NC(=O)[C@H](Cc1ccccc1)NC(=O)[C@@H](NC(=O)CNC(=O)[C@H](CCC(=O)O)NC(=O)C(C)(C)NC(=O)[C@@H](N)Cc1ccc(O)cc1)[C@@H](C)O)[C@@H](C)O)[C@@H](C)CC)C(C)C)C(=O)N[C@@H](CC(N)=O)C(=O)N[C@@H](CCCCNC(=O)CC[C@H](NC(=O)CC[C@H](NC(=O)CC[C@H](NC(=O)CC[C@H](NC(=O)CCCCCCCCCCCCCCCCC(=O)O)C(=O)O)C(=O)O)C(=O)O)C(=O)O)C(=O)NC(C)(C)C(=O)N[C@H](C(=O)N[C@@H](CCCNC(=N)N)C(=O)N[C@@H](CCC(N)=O)C(=O)N[C@@H](CCCNC(=N)N)C(=O)N[C@@H](Cc1ccc(O)cc1)C(N)=O)[C@@H](C)O [Compound 25, Y-Aib-E-G-T-F-T-S-D-Y-S-I-Aib-L-E-E-E-A-Q-Aib-A-F-V-R-H-L-I-N-K(1,3)-Aib-T-R-Q-R-Y-NH2.C18DA-gGlu-gGlu-gGlu-gGlu(1,2)]
0.6 nM	0.2 nM	–	4800 µg/mL	–	CC[C@H](C)[C@H](NC(=O)[C@H](CC(C)C)NC(=O)[C@H](Cc1c[nH]cn1)NC(=O)[C@H](CCCNC(=N)N)NC(=O)[C@@H](NC(=O)[C@H](Cc1ccccc1)NC(=O)[C@H](C)NC(=O)C(C)(C)NC(=O)[C@H](CCC(N)=O)NC(=O)[C@H](C)NC(=O)[C@H](CCC(N)=O)NC(=O)[C@H](CCCCN)NC(=O)[C@H](CCC(=O)O)NC(=O)[C@H](CC(C)C)NC(=O)C(C)(C)NC(=O)[C@@H](NC(=O)[C@H](CO)NC(=O)[C@H](Cc1ccc(O)cc1)NC(=O)[C@H](CC(=O)O)NC(=O)[C@H](CO)NC(=O)[C@@H](NC(=O)[C@H](Cc1ccccc1)NC(=O)[C@@H](NC(=O)CNC(=O)[C@H](CCC(=O)O)NC(=O)C(C)(C)NC(=O)[C@@H](N)Cc1ccc(O)cc1)[C@@H](C)O)[C@@H](C)O)[C@@H](C)CC)C(C)C)C(=O)N[C@@H](C)C(=O)N[C@@H](CCCCNC(=O)[C@@H](N)CCCCNC(=O)CC[C@H](NC(=O)CC[C@H](NC(=O)CC[C@H](NC(=O)CC[C@H](NC(=O)CC[C@H](NC(=O)CC[C@H](NC(=O)CCCCCCCCCCCCCCCCC(=O)O)C(=O)O)C(=O)O)C(=O)O)C(=O)O)C(=O)O)C(=O)O)C(=O)NC(C)(C)C(=O)N[C@H](C(=O)N[C@@H](CCCNC(=N)N)C(=O)N[C@@H](CCC(N)=O)C(=O)N[C@@H](CCCNC(=N)N)C(=O)N[C@@H](Cc1ccc(O)cc1)C(N)=O)[C@@H](C)O [Compound 68, Y-Aib-E-G-T-F-T-S-D-Y-S-I-Aib-L-E-K-Q-A-Q-Aib-A-F-V-R-H-L-I-A-K(1,3)-Aib-T-R-Q-R-Y-NH2.C18DA-gGlu-gGlu-gGlu-gGlu-gGlu-gGlu-eLys(1,2)] (H-Y[Aib]EGTFTSDYSI[Aib]LEKQAQ[Aib]AFVRHLIAK([εLys-γGlu-γGlu-γGlu-γGlu-γGlu-γGlu-C18 diacid])[Aib]TRQRY-NH2; N-terminus assumed)

More lines, now with the values behind:

SMILES	EC50 (hGLP1R; [2])	EC50 (hGIPR; [3])	EC50 (hGIPR; 100% human plasma, read-out: hGIPR 100% hP)	solubility at 2 h [1]	EC50 (hGLP1R; [4])
CC[C@H](C)[C@H](NC(=O)[C@H](CC(C)C)NC(=O)[C@H](Cc1c[nH]cn1)NC(=O)[C@H](CCCNC(=N)N)NC(=O)[C@@H](NC(=O)[C@H](Cc1ccccc1)NC(=O)[C@H](CCC(=O)O)NC(=O)C(C)(C)NC(=O)[C@H](CCC(N)=O)NC(=O)[C@H](C)NC(=O)[C@H](CCC(N)=O)NC(=O)[C@H](CCCCN)NC(=O)[C@H](CCC(=O)O)NC(=O)[C@H](CC(C)C)NC(=O)C(C)(C)NC(=O)[C@@H](NC(=O)[C@H](CO)NC(=O)[C@H](Cc1ccc(O)cc1)NC(=O)[C@H](CC(=O)O)NC(=O)[C@H](CO)NC(=O)[C@@H](NC(=O)[C@H](Cc1ccccc1)NC(=O)[C@@H](NC(=O)CNC(=O)[C@H](CCC(=O)O)NC(=O)C(C)(C)NC(=O)[C@@H](N)Cc1ccc(O)cc1)[C@@H](C)O)[C@@H](C)O)[C@@H](C)CC)C(C)C)C(=O)N[C@@H](CC(N)=O)C(=O)N[C@@H](CCCCNC(=O)[C@@H](N)CCCCNC(=O)CC[C@H](NC(=O)CC[C@H](NC(=O)CC[C@H](NC(=O)CC[C@H](NC(=O)CCCCCCCCCCCCCCCCC(=O)O)C(=O)O)C(=O)O)C(=O)O)C(=O)O)C(=O)NC(C)(C)C(=O)N[C@H](C(=O)N[C@@H](CCCNC(=N)N)C(=O)N[C@@H](CCC(N)=O)C(=O)N[C@@H](CCCNC(=N)N)C(=O)N[C@@H](Cc1ccc(O)cc1)C(N)=O)[C@@H](C)O [Compound 163, Y-Aib-E-G-T-F-T-S-D-Y-S-I-Aib-L-E-K-Q-A-Q-Aib-E-F-V-R-H-L-I-N-K(1,3)-Aib-T-R-Q-R-Y-NH2.C18DA-gGlu-gGlu-gGlu-gGlu-eLys(1,2)]	0.1 nM	0.2 nM	5.9 nM	5000 µg/mL	–
CC[C@H](C)[C@H](NC(=O)[C@H](CC(C)C)NC(=O)[C@H](Cc1c[nH]cn1)NC(=O)[C@H](CCCNC(=N)N)NC(=O)[C@@H](NC(=O)[C@H](Cc1ccccc1)NC(=O)[C@H](C)NC(=O)C(C)(C)NC(=O)[C@H](CCC(N)=O)NC(=O)[C@H](C)NC(=O)[C@H](CCC(N)=O)NC(=O)[C@H](CCCCN)NC(=O)[C@H](CCC(=O)O)NC(=O)[C@H](CC(C)C)NC(=O)C(C)(C)NC(=O)[C@@H](NC(=O)[C@H](CO)NC(=O)[C@H](Cc1ccc(O)cc1)NC(=O)[C@H](CC(=O)O)NC(=O)[C@H](CO)NC(=O)[C@@H](NC(=O)[C@H](Cc1ccccc1)NC(=O)[C@@H](NC(=O)CNC(=O)[C@H](CCC(=O)O)NC(=O)C(C)(C)NC(=O)[C@@H](N)Cc1ccc(O)cc1)[C@@H](C)O)[C@@H](C)O)[C@@H](C)CC)C(C)C)C(=O)N[C@@H](CC(N)=O)C(=O)N[C@@H](CCCCNC(=O)CC[C@H](NC(=O)CC[C@H](NC(=O)CC[C@H](NC(=O)CC[C@H](NC(=O)CC[C@H](NC(=O)CC[C@H](NC(=O)CCCCCCCCCCCCCCCCC(=O)O)C(=O)O)C(=O)O)C(=O)O)C(=O)O)C(=O)O)C(=O)O)C(=O)N[C@@H](CC(C)C)C(=O)N[C@H](C(=O)N[C@@H](CCCNC(=N)N)C(=O)N[C@@H](CCC(N)=O)C(=O)N[C@@H](CCCNC(=N)N)C(=O)N[C@@H](Cc1ccc(O)cc1)C(N)=O)[C@@H](C)O [Compound 12, Y-Aib-E-G-T-F-T-S-D-Y-S-I-Aib-L-E-K-Q-A-Q-Aib-A-F-V-R-H-L-I-N-K(1,3)-L-T-R-Q-R-Y-NH2.C18DA-gGlu-gGlu-gGlu-gGlu-gGlu-gGlu(1,2)]	1.8 nM	0.8 nM	–	5000 µg/mL	–
